Numbering of substitutions follows the chain as printed. Names and notes keep the numbering of the source. *1 amine or outer side, *2 acyl side, *3 side chain or, on linkers, in order; H or OH if unused. Where a SMILES comes first, the peptide text is derived from it. Bridges are numbered along the chain shown (N, C = ends). [ ]: non-standard residue; d: D form. Biphenyl(4,4'-CH2)2 = c1cc(-c2ccc(C[*:2])cc2)ccc1C[*:1]; Pro(trans-4-F) = O=C(O)[C@@H]1C[C@@H](F)CN1; Phe(4-I) = N[C@@H](Cc1ccc(I)cc1)C(=O)O
Assays:
[1] = target: T1, Aurora-A122-403-C290A/C393A (Homo sapiens, UniProt O14965, C290A/C393A); assay: Competition FA assay against FAM-Ahx-TACC3 522-536 tracer; assay type: binding; conditions: SD; read-out: IC50
T1 construct: Human Aurora-A kinase domain 122-403 wild-type or C290A/ C393A mutant; His tag (pET30TEV vector) (N, cleaved yes); made in house; host or cells: E. coli RIL, co-expressed with lambda phosphatase (Aurora-A); tracer by solid phase synthesis
T1 sequence (O14965 122-403 C290A/C393A): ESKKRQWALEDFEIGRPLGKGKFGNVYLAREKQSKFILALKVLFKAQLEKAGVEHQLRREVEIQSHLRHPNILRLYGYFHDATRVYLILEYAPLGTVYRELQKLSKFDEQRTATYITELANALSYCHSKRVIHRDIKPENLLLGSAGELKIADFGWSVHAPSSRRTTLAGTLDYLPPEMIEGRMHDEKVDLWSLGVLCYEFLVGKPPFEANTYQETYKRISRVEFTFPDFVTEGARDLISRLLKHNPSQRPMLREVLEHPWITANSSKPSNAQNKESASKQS

[2] = target: T1, Aurora-A122-403-C290A/C393A; assay: Isothermal titration calorimetry (ITC); assay type: binding; conditions: for -TΔS° / Kd / N (stoichiometry) / ΔG° / ΔH°: ITC as E13
Method: Isothermal titration calorimetry (ITC). ITC experiments were carried out using a MicroCal PEAQ-ITC system (Malvern Panalytical) at 25 °C. A stock solution of Aurora-A 122-403-290A/C393A was dialyzed into ITC buffer overnight (25 mM Tris buffer, pH= 7.5; 150 mM NaCl; 5 mM MgCl2; 5 % v/v glycerol), and the same buffer was employed to resuspend a solid portion of the testing peptides. For each experiment, initially, the cell was filled with 275 µl of Aurora-A122-403-290A/C393A (46 μM) and the syringe was loaded with the corresponding peptide at 1.25 mM concentration. An initial injection of 0.5 μL was then followed by 13 injections of 3 μL, every 150 s, with a constant syringe rotation speed of 750 rpm throughout. The signal for the enthalpy of dilution of each peptide into buffer was independently measured in a control titration experiment and then subtracted from the experimental binding traces. The Kd, ΔG°, ΔH° and -TΔS° values were determined via the MicroCal PEAQ-ITC analysis software (Malvern Paranalytical) using a single-site binding model. […]

[3] = Peptide enzymatic degradation assay, α-chymotrypsin; assay type: in vitro ADME, bovine; conditions: α-chymotrypsin (bovine pancreas), peptide 100 µM, peptide/enzyme molar ratio [P]/[E]= 25, HEPES 25 mM, pH 7.5, 25 °C, 6 hours; RP-HPLC peak area, exponential decay fit; three independent experiments, mean ± SD; SD; read-out: t1/2 in the presence of α-chymotrypsin
Method: (§1) into individual aliquots at -20 °C. […]
(§2) a concentration of 1 mg mL−1 concentration. The digestion samples were immediately prepared by mixing […]
(§3) were then incubated at 25 °C for 6 hours. […]
(§4) thermo-shaker for 6 hours. […]
(§5) presence of enzyme (t=0). […]
(§6) r = r଴ + A x e భ Eq. (SI - 10)
(§7) τ = tଵ ln(2) Eq. (SI - 11)
(§8) In all cases, control samples were […]
(§9) replicates and error bars indicating the corresponding SD. […]

[4] = target: T2, α-chymotrypsin (bovine pancreas) (Bos taurus, UniProt P00766); assay: as above; assay type: in vitro ADME; conditions: as E58; for stability to α-chymotrypsin (in words): compared with WT sequence
T2 construct: purchased Sigma; host or cells: bovine pancreas
Method: as §1, §2, §3, §4, §5, §6, §7, §8, §9

[5] = tested on: Trypsin; assay: Peptide enzymatic degradation assay, trypsin; conditions: as E60, compared with WT TACC3 518-532
[6] = target: T3, Aurora-A122-403-C290A/C393A (N-Myc/Aurora-A interaction) (Homo sapiens, UniProt O14965, C290A/C393A); assay: FA competition assay against FAM-Ahx-N-Myc61-89; assay type: binding; conditions: SD; read-out: IC50 (N-Myc displacement)
T3 construct: Human Aurora-A kinase domain 122-403 wild-type or C290A/ C393A mutant; His tag (pET30TEV vector) (N, cleaved yes); made in house; host or cells: E. coli RIL, co-expressed with lambda phosphatase (Aurora-A)
T3 sequence (O14965 122-403 C290A/C393A): T1 sequence (O14965 122-403 C290A/C393A)
Method: (1 picture or pasted object on this page, not shown here)
FA competition assays were performed using the same plates and buffer as described above, with the initial […]
14 points in a 1/2 regime. […]
after 4 h of incubation to enable appropriate sample equilibration. To prevent sample oxidation, when sulfhydryl peptides were analyzed DTT was added to the buffer (5 mM). In competition mode, the average anisotropy and the average standard deviation of the values derived from equation SI-6 were calculated […]
When using peptides for which full
For consistency, all the data […]
indicating the corresponding SD.
Molecular dynamics (MD) analyses: All peptide–protein complexes were subjected to duplicate MD simulations using YASARA structure.13 Starting from the reported x-ray crystal structure of one molecule of […]
modifications were introduced by direct replacement of the relevant atoms within the structure. When needed, biphenyl constraints were modeled in YASARA by swapping the pertinent amino acids for cysteines and connecting them to biphenyl- fragments. […]
crystal structure), and then minimised structures were generated using the energy minimization function with default settings. The modelled complexes were subjected to MD simulations using YASARA structure macro for fast MD run (www.yasara.org/md_runfast.mcr).14 Briefly, the AMBER14 forcefield was used and […]

[7] = tested on: Trypsin; conditions: pH 7.5
[8] = target: T4, Aurora-A 122-403 (Homo sapiens, UniProt O14965); assay: fluorescence anisotropy competition against TPX2
T4 chain: T1 sequence (O14965 122-403 C290A/C393A) with A169C, A272C

[9] = target: T4, Aurora-A 122-403; assay: fluorescence anisotropy competition against N-Myc
[10] = N unrestrained fit, single titration

Molecule: CC(=O)N[C@@H](CC(C)C)C(=O)N[C@@H](CCC(=O)O)C(=O)N[C@@H](CC(C)C)C(=O)N[C@@H](CCCCN)C(=O)N[C@@H](CCC(=O)O)C(=O)N[C@@H](CCC(=O)O)C(=O)N[C@H]1CSCc2ccc(cc2)-c2ccc(cc2)CSC[C@@H](C(=O)N[C@H](C(=O)N[C@@H](CC(C)C)C(N)=O)C(C)C)NC(=O)[C@H](C)NC(=O)[C@@H]2C[C@@H](F)CN2C(=O)[C@H](CC(=O)O)NC(=O)[C@H](CCCNC(=N)N)NC(=O)[C@H](Cc2ccc(I)cc2)NC1=O [TACC3 518-532-S/E-Bph-IF/fP] (Ac-LELKEEC[Phe(4-I)]RD[Pro(trans-4-F)]ACVL-NH2; linker 7-13 via Biphenyl(4,4'-CH2)2)
- IC50 [1]: 12 ± 1 µM
- -TΔS° [2, 10]: -4.47 kcal/mol
- Kd [2, 10]: 16.7 µM
- N (stoichiometry) [2, 10]: 1.62
- ΔG° [2, 10]: -6.52 kcal/mol
- ΔH° [2, 10]: -2.06 kcal/mol
- half-life at 100 µM [3]: 26 ± 2 min
- stability to α-chymotrypsin (in words) [4]: not protected
- stability to trypsin (in words) [5]: only partially improved stability
- stability to trypsin (in words) ([5]; listed as S/E constrained variant): not protected

Molecule: CC(=O)N[C@@H](CC(C)C)C(=O)N[C@@H](CCC(=O)O)C(=O)N[C@H]1CSCc2ccc(cc2)-c2ccc(cc2)CSC[C@@H](C(=O)N[C@@H](CC(=O)O)C(=O)N2C[C@H](F)C[C@H]2C(=O)N[C@@H](C)C(=O)N[C@@H](CCC(=O)O)C(=O)N[C@H](C(=O)N[C@@H](CC(C)C)C(N)=O)C(C)C)NC(=O)[C@H](Cc2ccc(I)cc2)NC(=O)[C@H](CO)NC(=O)[C@H](CCC(=O)O)NC(=O)[C@H](CCC(=O)O)NC(=O)[C@H](CCCCN)NC1=O [TACC3 518-532-L/R-Bph-IF/fP] (Ac-LECKEES[Phe(4-I)]CD[Pro(trans-4-F)]AEVL-NH2; linker 3-9 via Biphenyl(4,4'-CH2)2)
- IC50 [1]: 17 ± 1 µM
- -TΔS° ([2]; N restrained fit, Run 1): -5.5 kcal/mol
- Kd ([2]; N restrained fit, Run 1): 5.6 µM
- ΔG° ([2]; N restrained fit, Run 1): -7.17 kcal/mol
- ΔH° ([2]; N restrained fit, Run 1): -1.65 kcal/mol
- -TΔS° ([2]; N restrained fit, Run 2): -5.33 kcal/mol
- Kd ([2]; N restrained fit, Run 2): 5.9 µM
- ΔG° ([2]; N restrained fit, Run 2): -7.15 kcal/mol
- ΔH° ([2]; N restrained fit, Run 2): -1.79 kcal/mol
- -TΔS° ([2]; N unrestrained fit, Run 1): -5.71 kcal/mol
- Kd ([2]; N unrestrained fit, Run 1): 4.6 µM
- N (stoichiometry) ([2]; N unrestrained fit, Run 1): 1.06
- ΔG° ([2]; N unrestrained fit, Run 1): -7.29 kcal/mol
- ΔH° ([2]; N unrestrained fit, Run 1): -1.55 kcal/mol
- -TΔS° ([2]; N unrestrained fit, Run 2): -5.43 kcal/mol
- Kd ([2]; N unrestrained fit, Run 2): 5.5 µM
- N (stoichiometry) ([2]; N unrestrained fit, Run 2): 1.02
- ΔG° ([2]; N unrestrained fit, Run 2): -7.17 kcal/mol
- ΔH° ([2]; N unrestrained fit, Run 2): -1.74 kcal/mol
- -TΔS ([2]; ITC as E40, average of two independent titrations): -5.43 kcal/mol
- time resistant to chymotrypsin with no cleavage by-products detected ([4]; HPLC and LC/MS analysis): ~ 6 hr
- stability to α-chymotrypsin (in words) [4]: increased resistance
- IC50 [6]: 28.3 ± 1.2 µM
- t1/2 in the presence of trypsin [7]: ≥ 330 min
- stability to trypsin (in words) [5]: increased resistance

B1: TACC3 L/R-Bph-I/fP 518-532 (peptide)
chain: LELKEESFRDPAEVL
modifications: not fully specified; L520C/R526C biphenyl constraint, (4-I)Phe525, trans-(4-F)Pro528; Aurora-A C290A+C393A
- IC50 [8]: > 200 µM
- IC50 [9]: 28 µM

Source: publication PMC11604048, “Constrained TACC3 peptidomimetics for a non-canonical protein–protein interface elucidate allosteric communication in Aurora-A kinase” (Chemical Science, 2024)
